# Experimental data reported in patent publication US20240174718A1, “RYANODINE RECEPTOR INHIBITOR COMPOUNDS AND METHODS RELATING THERETO” (Vanderbilt University, priority 2022, published 2024).
# Where two headings read alike, the source gives them in different places.
# Assays:
# RyR2 = target: T1, RyR2 (Mus musculus, UniProt E9Q401); experiment: Intracellular Ca2+ measurements / spontaneous Ca2+ release in intact Casq2-/- cardiomyocytes; format: cell-based
# T1 construct: spontaneous openings of intracellular RyR2 Ca^2+ release channels; endogenous in cells; host or cells: ventricular cardiomyocytes isolated from Casq2-/- mice (saponin-permeabilized in A1, intact in A7)
# T1 sequence (E9Q401 whole entry): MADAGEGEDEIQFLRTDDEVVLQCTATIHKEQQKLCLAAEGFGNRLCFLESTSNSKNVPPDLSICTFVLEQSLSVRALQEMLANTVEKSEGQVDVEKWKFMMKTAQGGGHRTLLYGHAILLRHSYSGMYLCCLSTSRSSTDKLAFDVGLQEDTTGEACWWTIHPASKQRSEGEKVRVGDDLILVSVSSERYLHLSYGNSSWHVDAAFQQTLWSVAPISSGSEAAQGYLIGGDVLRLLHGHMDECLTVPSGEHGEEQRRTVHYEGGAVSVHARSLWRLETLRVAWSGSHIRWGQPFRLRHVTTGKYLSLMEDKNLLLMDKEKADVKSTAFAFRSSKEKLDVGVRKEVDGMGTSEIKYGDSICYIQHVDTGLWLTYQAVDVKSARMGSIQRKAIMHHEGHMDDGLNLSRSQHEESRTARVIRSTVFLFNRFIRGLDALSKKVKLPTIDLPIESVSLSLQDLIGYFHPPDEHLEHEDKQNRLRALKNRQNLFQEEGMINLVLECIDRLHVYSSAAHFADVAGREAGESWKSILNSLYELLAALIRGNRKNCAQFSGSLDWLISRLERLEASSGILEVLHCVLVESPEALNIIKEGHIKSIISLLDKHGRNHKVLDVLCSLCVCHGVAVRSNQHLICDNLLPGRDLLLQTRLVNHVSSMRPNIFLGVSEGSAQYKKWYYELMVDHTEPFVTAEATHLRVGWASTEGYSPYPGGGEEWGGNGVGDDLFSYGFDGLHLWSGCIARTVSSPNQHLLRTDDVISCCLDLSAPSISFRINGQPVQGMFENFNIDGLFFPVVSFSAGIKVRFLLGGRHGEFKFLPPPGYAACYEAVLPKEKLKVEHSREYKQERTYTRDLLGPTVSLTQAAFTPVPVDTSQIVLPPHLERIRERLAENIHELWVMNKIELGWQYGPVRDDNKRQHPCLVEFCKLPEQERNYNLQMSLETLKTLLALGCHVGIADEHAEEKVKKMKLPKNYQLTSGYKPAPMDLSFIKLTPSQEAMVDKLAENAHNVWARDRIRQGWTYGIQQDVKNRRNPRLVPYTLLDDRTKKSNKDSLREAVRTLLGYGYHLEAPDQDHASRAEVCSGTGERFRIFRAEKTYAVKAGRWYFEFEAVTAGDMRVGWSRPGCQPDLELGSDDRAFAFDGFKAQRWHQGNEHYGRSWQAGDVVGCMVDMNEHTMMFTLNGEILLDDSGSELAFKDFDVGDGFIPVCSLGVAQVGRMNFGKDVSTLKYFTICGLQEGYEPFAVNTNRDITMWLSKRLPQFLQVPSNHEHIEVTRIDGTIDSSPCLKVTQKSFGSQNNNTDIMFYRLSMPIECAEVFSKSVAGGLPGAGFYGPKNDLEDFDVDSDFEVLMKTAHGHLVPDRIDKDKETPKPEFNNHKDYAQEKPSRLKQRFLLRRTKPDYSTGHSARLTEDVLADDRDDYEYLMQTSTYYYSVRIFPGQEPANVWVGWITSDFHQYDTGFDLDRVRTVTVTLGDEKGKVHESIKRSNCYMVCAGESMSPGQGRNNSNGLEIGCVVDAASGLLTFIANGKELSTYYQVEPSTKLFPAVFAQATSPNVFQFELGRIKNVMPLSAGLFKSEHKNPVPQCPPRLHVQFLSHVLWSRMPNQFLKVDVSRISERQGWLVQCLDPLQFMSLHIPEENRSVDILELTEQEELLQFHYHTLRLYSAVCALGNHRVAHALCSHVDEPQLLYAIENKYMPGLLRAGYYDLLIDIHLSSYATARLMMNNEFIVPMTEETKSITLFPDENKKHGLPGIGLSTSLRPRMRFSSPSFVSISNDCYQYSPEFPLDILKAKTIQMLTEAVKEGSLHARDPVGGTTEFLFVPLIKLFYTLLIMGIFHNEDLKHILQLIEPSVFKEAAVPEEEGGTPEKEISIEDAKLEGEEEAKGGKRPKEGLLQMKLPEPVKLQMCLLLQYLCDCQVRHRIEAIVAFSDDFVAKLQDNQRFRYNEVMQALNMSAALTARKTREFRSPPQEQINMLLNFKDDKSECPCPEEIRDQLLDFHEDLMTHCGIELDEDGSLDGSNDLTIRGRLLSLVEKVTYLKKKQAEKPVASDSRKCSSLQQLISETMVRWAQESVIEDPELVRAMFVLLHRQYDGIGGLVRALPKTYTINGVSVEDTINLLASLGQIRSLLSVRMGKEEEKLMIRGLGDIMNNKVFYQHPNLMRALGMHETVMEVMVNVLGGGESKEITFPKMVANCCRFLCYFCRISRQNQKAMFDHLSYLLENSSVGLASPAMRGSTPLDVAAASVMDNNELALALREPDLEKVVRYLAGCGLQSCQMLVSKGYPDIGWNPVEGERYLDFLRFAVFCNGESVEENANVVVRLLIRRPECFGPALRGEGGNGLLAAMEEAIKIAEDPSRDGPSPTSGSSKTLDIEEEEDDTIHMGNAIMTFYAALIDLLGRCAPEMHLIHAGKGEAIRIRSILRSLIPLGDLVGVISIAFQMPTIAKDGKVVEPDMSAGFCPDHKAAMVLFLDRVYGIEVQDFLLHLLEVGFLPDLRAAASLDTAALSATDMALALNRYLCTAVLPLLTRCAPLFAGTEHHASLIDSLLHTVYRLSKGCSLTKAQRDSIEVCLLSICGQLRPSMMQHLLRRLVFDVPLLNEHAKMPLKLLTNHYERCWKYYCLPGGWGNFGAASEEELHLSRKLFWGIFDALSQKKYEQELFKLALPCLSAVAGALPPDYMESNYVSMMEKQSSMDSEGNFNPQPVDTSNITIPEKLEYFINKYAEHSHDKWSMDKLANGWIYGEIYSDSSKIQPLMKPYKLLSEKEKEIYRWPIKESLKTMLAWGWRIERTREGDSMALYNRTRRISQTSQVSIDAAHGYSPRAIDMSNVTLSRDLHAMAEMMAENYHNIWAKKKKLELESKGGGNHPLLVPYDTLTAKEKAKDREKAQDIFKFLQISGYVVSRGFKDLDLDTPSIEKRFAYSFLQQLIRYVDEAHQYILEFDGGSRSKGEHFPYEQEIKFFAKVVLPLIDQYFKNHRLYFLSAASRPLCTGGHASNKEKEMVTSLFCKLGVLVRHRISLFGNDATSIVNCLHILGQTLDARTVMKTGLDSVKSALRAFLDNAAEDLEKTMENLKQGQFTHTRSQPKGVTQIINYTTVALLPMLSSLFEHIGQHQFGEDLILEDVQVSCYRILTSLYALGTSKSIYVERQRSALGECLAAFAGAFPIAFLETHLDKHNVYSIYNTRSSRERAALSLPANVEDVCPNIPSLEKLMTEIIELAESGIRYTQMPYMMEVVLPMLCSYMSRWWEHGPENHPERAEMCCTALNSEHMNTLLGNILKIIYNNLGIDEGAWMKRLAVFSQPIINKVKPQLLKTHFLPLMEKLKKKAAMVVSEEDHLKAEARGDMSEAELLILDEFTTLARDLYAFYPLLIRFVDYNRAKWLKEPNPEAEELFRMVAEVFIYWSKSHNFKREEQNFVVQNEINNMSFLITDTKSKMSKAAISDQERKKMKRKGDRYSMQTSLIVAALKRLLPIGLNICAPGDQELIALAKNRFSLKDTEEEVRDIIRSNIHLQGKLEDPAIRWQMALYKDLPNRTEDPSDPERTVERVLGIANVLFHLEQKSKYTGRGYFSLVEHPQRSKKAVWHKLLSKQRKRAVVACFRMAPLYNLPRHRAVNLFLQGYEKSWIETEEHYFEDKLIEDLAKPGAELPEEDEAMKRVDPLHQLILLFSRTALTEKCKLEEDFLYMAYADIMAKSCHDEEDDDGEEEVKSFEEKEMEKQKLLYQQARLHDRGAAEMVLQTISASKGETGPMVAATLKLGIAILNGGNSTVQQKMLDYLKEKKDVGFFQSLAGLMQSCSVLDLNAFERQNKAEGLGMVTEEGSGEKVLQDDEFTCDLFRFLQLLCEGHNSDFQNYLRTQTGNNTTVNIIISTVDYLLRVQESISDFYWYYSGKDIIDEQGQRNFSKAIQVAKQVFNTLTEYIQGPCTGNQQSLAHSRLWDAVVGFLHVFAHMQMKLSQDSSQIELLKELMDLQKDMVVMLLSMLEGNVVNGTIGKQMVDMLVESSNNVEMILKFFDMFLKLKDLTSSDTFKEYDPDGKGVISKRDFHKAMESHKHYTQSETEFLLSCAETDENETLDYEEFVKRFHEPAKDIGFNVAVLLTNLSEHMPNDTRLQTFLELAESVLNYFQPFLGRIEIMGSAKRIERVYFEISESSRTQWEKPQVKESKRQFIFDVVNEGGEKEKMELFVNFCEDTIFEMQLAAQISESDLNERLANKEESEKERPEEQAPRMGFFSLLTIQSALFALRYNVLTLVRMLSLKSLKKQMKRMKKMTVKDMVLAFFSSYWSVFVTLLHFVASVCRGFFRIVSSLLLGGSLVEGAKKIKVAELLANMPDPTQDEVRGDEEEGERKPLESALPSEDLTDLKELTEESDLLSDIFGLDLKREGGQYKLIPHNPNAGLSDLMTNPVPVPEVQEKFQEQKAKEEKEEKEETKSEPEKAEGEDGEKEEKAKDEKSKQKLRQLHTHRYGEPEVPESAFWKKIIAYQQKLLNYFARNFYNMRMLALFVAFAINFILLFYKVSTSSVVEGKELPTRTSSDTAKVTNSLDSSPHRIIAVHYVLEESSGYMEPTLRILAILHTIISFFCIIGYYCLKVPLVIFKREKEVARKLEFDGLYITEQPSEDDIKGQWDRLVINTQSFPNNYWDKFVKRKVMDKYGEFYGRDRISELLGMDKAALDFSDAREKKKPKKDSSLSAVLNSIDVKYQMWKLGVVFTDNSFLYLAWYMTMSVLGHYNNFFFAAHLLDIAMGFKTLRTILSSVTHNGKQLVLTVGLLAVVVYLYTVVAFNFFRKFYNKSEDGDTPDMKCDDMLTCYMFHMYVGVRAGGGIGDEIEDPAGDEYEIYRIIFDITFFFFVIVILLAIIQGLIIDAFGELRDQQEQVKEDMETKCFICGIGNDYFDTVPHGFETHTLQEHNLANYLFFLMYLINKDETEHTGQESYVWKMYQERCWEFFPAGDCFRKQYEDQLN
# Method: FIGS. 4(A-G) show intracellular Ca2+ measurements from intact Casq2−/− cardiomyocytes. […] For panels A-D and G, N=26, 30, 30, 30, and 31 cells for DMSO, 0.03, 0.1, 1, and 3 μM ent-B1, respectively. For panels E and F, N=14, 27, 29, 29, and 30 cells for DMSO, 0.03, 0.1, 1, and 3 μM ent-B1, respectively. Data are shown as mean±SD with individual data points.
# FIGS. 10(A-B) show the spontaneous Ca^2+ release in intact mouse Casq2^−/− cardiomyocytes. […] Cells were field stimulated at 3 Hz for 20 s before recording. Blue marks indicate final stimulations of pacing train, arrows SCR events. Recording duration was 40 s before 10 mM caffeine application to assess total SR Ca^2+ content. […] Data are shown as mean±SD.
# Intracellular Ca^2+ measurements in intact cardiomyocytes—Ventricular cardiomyocytes were isolated from two male 10-week old and one female 13-week old Casq2^−/− mouse as described previously (Knollmann et al., 2006). Cardiomyocytes were pre-incubated for 2 hours with DMSO or ent-B1. Myocytes were then loaded with Fura-2 acetoxymethyl ester (Fura-2 AM; Invitrogen) as described previously (Batiste et al., 2019). Briefly, isolated single ventricular myocytes were incubated with 2 μM Fura-2 AM for 7 minutes to load the indicator in the cytosol. Myocytes were then washed twice for 10 minutes with normal Tyrode (NT) solution containing 250 μM probenecid (all solutions also contained either vehicle [DMSO] or ent-B1). The composition of NT used for Fura-2 loading and washing was (in mM): 134 NaCl, 5.4 KCl, 1.2 CaCl2, 1 MgCl2, 10 glucose, and 10 HEPES, pH adjusted to 7.4 with NaOH. After Fura-2 loading, all experiments were conducted in NT solution containing 1 μM isoproterenol and 2 mM CaCl2. Fura2-loaded myocytes were electrically paced at 3 Hz field stimulation and Ca transients were recorded for 20 seconds followed by no electrical stimulation for 40 seconds to record spontaneous Ca release events. After that, myocytes were perfused with 10 mM caffeine in NT solution for 5 seconds to estimate total SR Ca content. Fura-2 was measured using a dual-beam excitation fluorescence photometry setup (IonOptix Corp.) and analyzed using commercially available data analysis software (IonWizard, IonOptix, Milton, MA). All experiments were conducted at room temperature.
# All tests were two-sided and a p-value cutoff of <0.05 was used to denote significance. Concentration-response curves for RyR2 single-channel, [^3H]ryanodine ligand binding and intact myocyte assays were generated using non-linear regression with the equation: Y=Bottom+(Top−Bottom)/(1+(IC50/X)^HillSlope) using least square regression, no weighting, and no constrains on the parameters. The distributions of relative RyR2 open probability at each [ent-B1] were normalized by taking the log of each sample. For the 3×3 crossover in vivo ECG study, a pre-test was conducted using a mixed model with fixed effects of sequence and period; mice were treated as random effects.
# [1] = In vivo pharmacokinetic study after intraperitoneal administration; design: species or system mouse; settings: for half-life: 3 mg/kg
# Method: FIGS. 11(A-B) show in vivo pharmacokinetics in mice for a compound of the present invention. […] N=3 mice. Plasma collected serially at 0.167, 0.333. 0.5, 1, 3, and 8 hours post-administration. […] Individual data points (grey) shown alongside mean values with connecting lines.
# In vivo pharmacokinetic study—The pharmacokinetic study was carried out by a contract research organization, Pharmaron, Inc. Mice were housed with free access to food and water. All protocols and procedures were compliant with Animal care and Use Application approved by the Institution Animal Care and Use Committee of Pharmaron, Inc., (protocol #PH-DMPK-VUMC-22-003) following the guidance of the Association for Assessment and Accreditation of Laboratory Animal Care (AAALAC). An ent-B1 dose of 3 mg/kg (drug/body weight) was used. Three male CDI mice, age 6-8 weeks, were selected for the study. Mice were injected intraperitoneally with ent-B1 dissolved in solution containing 10% Tween 20, 10% DMSO, 40% water, and 40% PEG-400 (v/v, 5 mL/kg), with a final concentration of 0.6 mg/mL. 30 μL of blood was collected from each animal at 10, 20, 30, 60, 180, and 480 minutes following drug administration and centrifuged at 5000×g, 4° C. for 5 minutes to obtain plasma. The samples were stored at −75±15° C. until analysis.
# LC-MS/MS analysis of ent-B1—LC-MS/MS with electronspray ionization in the positive ion mode setting was used to detect ent-B1 followed by multiple reaction monitoring of precursor and product ions as follows: ent-B1 (mass-to-charge ratio [m/z] 640.18 to 214.00). Mouse plasma was quantified using nine standards (0.5-1000 ng/ml) and four quality control levels (1, 2, 50, 800 ng/ml) prepared independently of those used for the standard curve. 20 μL of standards, quality control samples, and unknown samples (10 μL plasma and 10 μL blank solution) were added to 200 μL acetonitrile containing internal standard (dexamethasone; [m/z] 393.40 to 373.30) for protein precipitation. The samples were vortexed for 30 seconds, centrifuged for 15 minutes at 4000 rpm and […], and the supernatant was diluted five times with water. Samples were then loaded into SIL-30AC autosampler and 10 μL was injected into a Shimadzu LC-30AD Series HPLC coupled to an AB Sciex Triple Quad 5500 mass spectrometer. Analytes were separated on a Raptor Biphenyl column (50×2.1 mm, 2.7 um) using a 95:5 (v/v) mobile phase mixture of 0.1% formic acid in water (mobile phase A) and 0.1% formic acid in acetonitrile (mobile phase B) at the flow rate of 0.6 ml/min. The gradient for mobile phase B was increased to 95% over 1.4 minutes with a total run time of 2.5 minutes for each sample. All quality controls and standards met the following acceptance criteria 1) standard curve of at least five standards are within 15% of their nominal concentrations and at least 50% at each quality control level (low, medium, and high) were within 15% of their nominal concentrations.
# Pharmacokinetic analysis—Plasma concentrations of ent-B1 at each time point were imported to Phoenix WinNonlin® 8.0 software (Certara USA, Inc., Princeton, NJ). Plasma concentration time profiles for individual animals were analyzed by noncompartmental analysis using model 200 (Plasma; Single Extravascular Dose; Linear Log Trapezoidal Method) to approximate the elimination rate constant (ke), half-life (T1/2), maximum observed plasma concentration (Cmax), time to maximum observed plasma concentration (Tmax), the area under the plasma concentration-time curve from zero to infinity (AUCinf).
# [2] = 3 μM (only the highest concentration tested)
# [3] = male, mouse, plasma, ip, 3 mg/kg intraperitoneal, CD1 mice
smiles,measurement,setting,value
"CCCCC[C@@H]1OC(=O)[C@@H](C)N(C)C(=O)[C@H](CCCCC)OC(=O)[C@@H](C)N(C)C(=O)[C@H](CCCCC)OC(=O)[C@@H](C)N(C)C1=O (single isomer, unassigned) [ent-B1]",Ca2+ decay kinetics (indicator of SERCA2 SR uptake rate),RyR2,no effect
same,time-to-peak of Ca2+ transients,RyR2,no effect
same,amplitude of the caffeine-induced Ca2+ transient,RyR2; [2],reduced
same,amplitude of the systolic Ca2+ transient,RyR2; [2],reduced
same,diastolic Ca2+ levels,RyR2; [2],reduced
same,time of peak plasma concentration after i.p. injection,[1]; 3 mg/kg i.p.,10 min
same,clinical observation during PK experiment,"[1]; 3 mg/kg i.p., CD1 mice",no abnormality
same,ke (elimination rate constant),"[1]; 3 mg/kg intraperitoneal, CD1 mice",0.932 ± 0.139 h⁻¹
same,half-life,"[1]; male, CD1, mouse, plasma, ip, 3 mg/kg i.p., mice, read-out: mean elimination half-life (t1/2)",45.4 min
same,half-life,"[1]; male, CD1, mouse, plasma, ip, 3 mg/kg intraperitoneal, CD1 mice, read-out: T1/2 (elimination half-life) (converted)",45.4 ± 7.38 min
same,Cmax,"[1]; male, CD1, mouse, plasma, ip, 3 mg/kg i.p., read-out: mean peak plasma concentration (Cmax)",2300 nM
same,Cmax,"[1]; male, mouse, ip, 3 mg/kg intraperitoneal, CD1 mice, plasma, read-out: Cmax",1460 ng/mL
same,AUC(0-inf),[1]; [3],1020 ± 184 ng·h/mL
same,CL/F,[1]; [3],50.2 mL/min/kg
same,Tmax,[1]; [3],10 min
same,Vd/F,"[1]; male, mouse, plasma, ip, 3 mg/kg intraperitoneal, CD1 mice, read-out: Vz/F",3.32 ± 1 L/kg
same,peak plasma concentration in vivo relative to IC50 in cardiomyocytes,"[1]; mouse, in vivo",more than 10 fold
